Data taken from ChEMBL document CHEMBL1126208, “Synthesis and antileukemic activity of etoposide a-ring analogs” (Bioorg Med Chem Lett, 1992).
In brackets after ≈: the same amount, converted by molar mass.

Columns and labels:
Mus musculus [1] = experiment: Anti-P388 Leukemia activity after 70 mg/kg/injection ip administration on days 5 and 8 expressed as percent of median survival time of drug treated mice compared to saline treated controls.; type: functional; conditions: route intraperitoneal
HCT-116 [2] = experiment: Compound was tested for its in vitro cytotoxicity in HCT-VP35 cell line after 72 hours; type: functional, cell-based; conditions: Homo sapiens, HCT-116, 72 h
Mus musculus [3] = experiment: Anti-P388 Leukemia activity after 140 mg/kg/injection ip administration on days 5 and 8 expressed as percent of median survival time of drug treated mice compared to saline treated controls.; type: functional; conditions: route intraperitoneal
Mus musculus [4] = experiment: Anti-P388 Leukemia activity after 280 mg/kg/injection ip administration on days 5 and 8 expressed as percent of median survival time of drug treated mice compared to saline treated controls.; type: functional; conditions: route intraperitoneal
Mus musculus [5] = experiment: Anti-P388 Leukemia activity determined when compound 120 mg/kg was administered ip on day 26 on mice expressed as the Long -term survivors (LTS); mice alive/total No of mice tested=6; type: functional; conditions: route intraperitoneal
HCT-116 [6] = experiment: Compound was tested for its in vitro cytotoxicity in HCT116 cell line after 72 hours; type: functional, cell-based; conditions: Homo sapiens, HCT-116, 72 h
[7] = Ratio of IC50 of HCT-VP35 to IC50 of HCT116; type: functional
Mus musculus [8] = experiment: Anti-P388 Leukemia activity determined when compound 150 mg/kg was administered ip on day 51 on mice expressed as the Long -term survivors (LTS); mice alive/total; type: functional; conditions: route intraperitoneal
[9] = Ratio of IC50 of HCT-VP35 to IC50 of HCT116.; type: functional
Mus musculus [10] = experiment: Anti-P388 Leukemia activity determined when compound 150 mg/kg was administered ip on day 48 on mice expressed as the Long -term survivors (LTS); mice alive/total No of mice tested=6; type: functional; conditions: route intraperitoneal
Mus musculus [11] = experiment: Anti-P388 Leukemia activity determined when compound 150 mg/kg was administered ip on day 51 on mice expressed as the Long -term survivors (LTS); mice alive/total; total no of mice =6; type: functional; conditions: route intraperitoneal
Mus musculus [12] = experiment: Anti-P388 Leukemia activity determined when compound 150 mg/kg was administered ip on day 48 on mice expressed as the Long -term survivors (LTS); mice alive/total; No of mice tested=6; type: functional; conditions: route intraperitoneal
Mus musculus [13] = experiment: Anti-P388 Leukemia activity determined when compound 120 mg/kg was administered ip on day 53 on mice expressed as the Long -term survivors (LTS); mice alive/total No of mice tested=6; type: functional; conditions: route intraperitoneal

COc1cc([C@@H]2c3cc4oc(=S)oc4cc3[C@@H](O[C@@H]3O[C@@H]4CO[C@@H](C)O[C@H]4[C@H](O)[C@H]3O)[C@H]3COC(=O)[C@H]23)cc(OC)c1O
T/C (Mus musculus [1]): 130
IC50 (HCT-116 [2]): > 15.6 µg/mL
T/C (Mus musculus [3]): 155
T/C (Mus musculus [4]): 170
LTS (Mus musculus [5]): 6
IC50 (HCT-116 [6]): > 15.6 µg/mL

COc1cc([C@@H]2c3cc(OC(C)=O)c(OC(C)=O)cc3[C@@H](O[C@@H]3O[C@@H]4CO[C@@H](C)O[C@H]4[C@H](O)[C@H]3O)[C@H]3COC(=O)[C@H]23)cc(OC)c1O
T/C (Mus musculus [1]): 144
IC50 (HCT-116 [2]): 27.1 µg/mL (≈ 41 µM)
T/C (Mus musculus [3]): 167
T/C (Mus musculus [4]): 194
Ratio [7]: 1.4
IC50 (HCT-116 [6]): 19.6 µg/mL (≈ 29.6 µM)
LTS (Mus musculus [8]): 4

CCCCCCCC(=O)Oc1cc2c(cc1OC(=O)CCCCCCC)[C@@H](O[C@@H]1O[C@@H]3CO[C@@H](C)O[C@H]3[C@H](O)[C@H]1O)[C@H]1COC(=O)[C@@H]1[C@@H]2c1cc(OC)c(O)c(OC)c1
T/C (Mus musculus [1]): 120
IC50 (HCT-116 [2]): 21.7 µg/mL (≈ 26.1 µM)
T/C (Mus musculus [3]): 125
Ratio [9]: 2.7
T/C (Mus musculus [4]): 135
LTS (Mus musculus [10]): 5
IC50 (HCT-116 [6]): 8.03 µg/mL (≈ 9.69 µM)

COc1cc2c(cc1OC)[C@@H](O[C@@H]1O[C@@H]3CO[C@@H](C)O[C@H]3[C@H](O)[C@H]1O)[C@H]1COC(=O)[C@@H]1[C@@H]2c1cc(OC)c(O)c(OC)c1
T/C (Mus musculus [1]): 189
IC50 (HCT-116 [2]): 10.3 µg/mL (≈ 17.1 µM)
T/C (Mus musculus [3]): 189
Ratio [9]: 6.4
T/C (Mus musculus [4]): 228
IC50 (HCT-116 [6]): 1.61 µg/mL (≈ 2.66 µM)
LTS (Mus musculus [11]): 4

COc1cc([C@@H]2c3cc(OC(=O)OCc4ccccc4)c(OC(=O)OCc4ccccc4)cc3[C@@H](O[C@@H]3O[C@@H]4CO[C@@H](C)O[C@H]4[C@H](O)[C@H]3O)[C@H]3COC(=O)[C@H]23)cc(OC)c1O
IC50 (HCT-116 [2]): 11.8 µg/mL (≈ 14 µM)
Ratio [9]: 2
IC50 (HCT-116 [6]): 5.8 µg/mL (≈ 6.87 µM)

COc1cc([C@@H]2c3cc(O)c(O)cc3[C@@H](O[C@@H]3O[C@@H]4CO[C@@H](C)O[C@H]4[C@H](OC(=O)OCC(Cl)(Cl)Cl)[C@H]3OC(=O)OCC(Cl)(Cl)Cl)[C@H]3COC(=O)[C@H]23)cc(OC)c1OC(=O)OCC(Cl)(Cl)Cl
LTS (Mus musculus [12]): 5
T/C (Mus musculus [1]): 100
IC50 (HCT-116 [2]): 8.95 µg/mL (≈ 8.12 µM)
T/C (Mus musculus [3]): 100
Ratio [9]: 0.87
T/C (Mus musculus [4]): 105
IC50 (HCT-116 [6]): 10.2 µg/mL (≈ 9.27 µM)

COc1cc([C@@H]2c3cc(O)c(O)cc3[C@@H](O[C@@H]3O[C@@H]4CO[C@@H](C)O[C@H]4[C@H](O)[C@H]3O)[C@H]3COC(=O)[C@H]23)cc(OC)c1O
T/C (Mus musculus [1]): 125
IC50 (HCT-116 [2]): > 15.6 µg/mL
T/C (Mus musculus [3]): 130
T/C (Mus musculus [4]): 165
LTS (Mus musculus [13]): 2
IC50 (HCT-116 [6]): > 15.6 µg/mL

COc1cc([C@@H]2c3cc4c(cc3[C@@H](O[C@@H]3O[C@@H]5CO[C@@H](C)O[C@H]5[C@H](O)[C@H]3O)[C@H]3COC(=O)[C@H]23)OCO4)cc(OC)c1O [ETOPOSIDE]
IC50 (HCT-116 [2]): 1.78 µg/mL (≈ 3.02 µM)
Ratio [9]: 5.2
IC50 (HCT-116 [6]): 0.34 µg/mL (≈ 0.578 µM)
